The test system of this test is L1210 leukemia ip in BDF1 mice, survival T/C. Nature of the test: NCI In Vivo Anticancer Drug Screen. Data for tumor model L1210 Leukemia (intraperitoneal) in B6D2F1 (BDF1) mice. To be noted: endpoint: mean survival time, higher = longer survival. Put shortly: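 Mice bearing the transplanted tumor received compound or vehicle. Survival of the treated group was divided by that of the vehicle-treated control group to give the ratio.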

Setting [1] is: dose: 100.0 mg/kg/injection, schedule: Q01DX009 (ip), vehicle: saline.
The mark [2] stands for this setting: dose: 200.0 mg/kg/injection, schedule: Q01DX009 (ip), vehicle: saline.
[3] abbreviates: dose: 100.0 mg/kg/injection, schedule: Q04DX002 (ip), vehicle: saline with Tween-80.
[4] abbreviates: dose: 200.0 mg/kg/injection, schedule: Q04DX002 (ip), vehicle: saline with Tween-80.
Setting [5] is: dose: 400.0 mg/kg/injection, schedule: Q04DX002 (ip), vehicle: saline with Tween-80.
[6] abbreviates: dose: 100.0 mg/kg/injection, schedule: Q04DX002 (ip), vehicle: saline.
Setting [7] is: dose: 200.0 mg/kg/injection, schedule: Q04DX002 (ip), vehicle: saline.
Where [8] appears, read: dose: 400.0 mg/kg/injection, schedule: Q04DX002 (ip), vehicle: saline.
Setting [9] is: dose: 100.0 mg/kg/injection, schedule: Q04DX003 (ip), vehicle: Klucel (hydroxypropylcellulose) (HPC).
[10] abbreviates: dose: 200.0 mg/kg/injection, schedule: Q04DX003 (ip), vehicle: Klucel (hydroxypropylcellulose) (HPC).
Setting [11] is: dose: 400.0 mg/kg/injection, schedule: Q04DX003 (ip), vehicle: Klucel (hydroxypropylcellulose) (HPC).
Setting [12] is: dose: 25.0 mg/kg/injection, schedule: Q01DX009 (ip), vehicle: saline.
Where [13] appears, read: dose: 100.0 mg/kg/injection, schedule: Q04DX003 (ip), vehicle: saline.
The mark [14] stands for this setting: dose: 200.0 mg/kg/injection, schedule: Q04DX003 (ip), vehicle: saline.
The mark [15] stands for this setting: dose: 400.0 mg/kg/injection, schedule: Q04DX003 (ip), vehicle: saline.
The mark [16] stands for this setting: dose: 100.0 mg/kg/injection, schedule: Q01DX001 (ip), vehicle: saline.
The mark [17] stands for this setting: dose: 100.0 mg/kg/injection, schedule: Q01DX009 (ip), vehicle: acetone.
The mark [18] stands for this setting: dose: 200.0 mg/kg/injection, schedule: Q01DX001 (ip), vehicle: saline.
[19] abbreviates: dose: 200.0 mg/kg/injection, schedule: Q01DX009 (ip), vehicle: acetone.
Setting [20] is: dose: 400.0 mg/kg/injection, schedule: Q01DX001 (ip), vehicle: saline.

From PubChem BioAssay AID248 (DTP/NCI, 2004) come the findings set out here.

Values joined by “and” are separate entries in the source; they are usually repeats but may differ in a detail not shown here. Equal values may be shown once. Inconclusive results and toxic doses are left out.

`COc1cc(NC(=O)CN(CCCl)CCCl)cc(OC)c1OC`: the T/C is, setting by setting: (dose: 13.3 mg/kg/injection, schedule: Q01DX009 (ip), vehicle: carboxymethylcellulose (CMC)) 116 % of control; (dose: 20.0 mg/kg/injection, schedule: Q01DX009 (ip), vehicle: carboxymethylcellulose (CMC)) 100 % of control; (dose: 25.0 mg/kg/injection, schedule: Q01DX001 (ip), vehicle: carboxymethylcellulose (CMC)) 122 % of control; (dose: 30.0 mg/kg/injection, schedule: Q01DX009 (ip), vehicle: carboxymethylcellulose (CMC)) 124 % of control; (dose: 44.4 mg/kg/injection, schedule: Q01DX009 (ip), vehicle: carboxymethylcellulose (CMC)) 123 % of control; (dose: 45.0 mg/kg/injection, schedule: Q01DX009 (ip), vehicle: carboxymethylcellulose (CMC)) 107 % of control. Further, the T/C reads like this: (dose: 50.0 mg/kg/injection, schedule: Q01DX001 (ip), vehicle: carboxymethylcellulose (CMC)) 116 % of control; (dose: 66.6 mg/kg/injection, schedule: Q01DX009 (ip), vehicle: carboxymethylcellulose (CMC)) 110 % of control; (dose: 89.0 mg/kg/injection, schedule: Q01DX001 (ip), vehicle: carboxymethylcellulose (CMC)) 112 % of control; (dose: 89.0 mg/kg/injection, schedule: Q01DX001 (ip), vehicle: saline) 118 % of control; (dose: 100.0 mg/kg/injection, schedule: Q01DX001 (ip), vehicle: carboxymethylcellulose (CMC)) 119 % of control; (dose: 100.0 mg/kg/injection, schedule: Q01DX009 (ip), vehicle: carboxymethylcellulose (CMC)) 86 % of control. Further, the T/C is 170 % of control under setting [1]; 102 % of control and 115 % of control (dose: 133.0 mg/kg/injection, schedule: Q01DX001 (ip), vehicle: carboxymethylcellulose (CMC)); 88 % of control (dose: 150.0 mg/kg/injection, schedule: Q01DX009 (ip), vehicle: carboxymethylcellulose (CMC)); 90 % of control (dose: 150.0 mg/kg/injection, schedule: Q01DX009 (ip), vehicle: saline); 114 % of control and 120 % of control (dose: 200.0 mg/kg/injection, schedule: Q01DX001 (ip), vehicle: carboxymethylcellulose (CMC)); 107 % of control (dose: 300.0 mg/kg/injection, schedule: Q01DX001 (ip), vehicle: carboxymethylcellulose (CMC)).
In the case of `NC(=O)NNC1OCC(O)C(O)C1O` (stereo unspecified), the T/C under setting [1] is 90 % of control; the T/C (dose: 100.0 mg/kg/injection, schedule: Q04DX003 (ip), vehicle: water) was 96 % of control; the T/C under setting [2] is 95 % of control; the T/C (dose: 200.0 mg/kg/injection, schedule: Q04DX003 (ip), vehicle: water) is 96 % of control; the T/C (dose: 400.0 mg/kg/injection, schedule: Q01DX009 (ip), vehicle: saline) is 97 % of control; the T/C (dose: 400.0 mg/kg/injection, schedule: Q04DX003 (ip), vehicle: water) is 97 % of control.
`O=C(Nc1cccc(O)c1)OCCCl`: the T/C is, setting by setting: (dose: 100.0 mg/kg/injection, schedule: Q01DX001 (ip), vehicle: saline + alcohol) 105 % of control; (dose: 200.0 mg/kg/injection, schedule: Q01DX001 (ip), vehicle: saline + alcohol) 102 % of control; (dose: 400.0 mg/kg/injection, schedule: Q01DX001 (ip), vehicle: saline + alcohol) 92 % of control.
As for `C/C=C/c1ccc(O)c(OC)c1`, the T/C is 92 % of control under setting [3], 86 % of control under setting [4] and 86 % of control under setting [5].
`O=[N+]([O-])c1cc(Cl)c(O)c([N+](=O)[O-])c1O`: the T/C (dose: 75.0 mg/kg/injection, schedule: Q01DX001 (ip), vehicle: carboxymethylcellulose (CMC)) is 103 % of control.
Turning to `N#CCC(=O)N1CCc2ccccc2C1`, the T/C runs as follows: (dose: 100.0 mg/kg/injection, schedule: Q01DX009 (ip), vehicle: saline with Tween-80) 97 % of control; under setting [3], 94 % of control; (dose: 200.0 mg/kg/injection, schedule: Q01DX009 (ip), vehicle: saline with Tween-80) 97 % of control; under setting [4], 105 % of control; under setting [5], 101 % of control.
With `C[CH2][Ge]1([CH2]C)[CH2]CC2(C[CH2]1)NC(=O)NC2=O`, the T/C is 103 % of control under setting [6], 100 % of control under setting [7] and 96 % of control under setting [8].
For `O=c1ccc2c(-c3ccccc3O)c3ccc(O)cc3oc-2c1`, the T/C is, setting by setting: under setting [9], 93 % of control; under setting [10], 94 % of control; under setting [11], 92 % of control.
On to `C1=C(c2ccccc2)CCCC1`, for which the T/C was 92 % of control (dose: 100.0 mg/kg/injection, schedule: Q01DX009 (ip), vehicle: Klucel (hydroxypropylcellulose) (HPC)); 106 % of control under setting [9]; 95 % of control (dose: 200.0 mg/kg/injection, schedule: Q01DX009 (ip), vehicle: Klucel (hydroxypropylcellulose) (HPC)); 100 % of control under setting [10]; 109 % of control (dose: 400.0 mg/kg/injection, schedule: Q01DX009 (ip), vehicle: Klucel (hydroxypropylcellulose) (HPC)); 92 % of control under setting [11].
`Cc1cc2cc3c(=O)[nH]c(=O)nc-3n(CC(O)C(O)C(O)COP(=O)(O)O)c2cc1C` (stereo unspecified): the T/C under setting [12] is 96 % of control; the T/C (dose: 50.0 mg/kg/injection, schedule: Q01DX009 (ip), vehicle: saline) is 100 % of control; the T/C under setting [1] was 94 % of control and 89 % of control; the T/C under setting [13] was 110 % of control; the T/C under setting [2] is 86 % of control; the T/C under setting [14] is 100 % of control. Besides, the T/C under setting [15] is 98 % of control.
`COC(=O)C(N)CSCc1ccccc1` (stereo unspecified): the T/C under setting [13] is 87 % of control, the T/C under setting [14] was 89 % of control and the T/C under setting [15] is 94 % of control.
As for `Clc1ccc2[nH]c(-c3ccccc3)c(-c3ccccc3)c2c1`, the T/C runs as follows: under setting [16], 92 % of control; under setting [17], 102 % of control; under setting [18], 89 % of control; under setting [19], 102 % of control; under setting [20], 96 % of control.
As for `CCOc1cc(N2CCOCC2)c(OCC)cc1N`, the T/C was 103 % of control (dose: 6.0 mg/kg/injection, schedule: Q01DX009 (ip), vehicle: saline); 100 % of control (dose: 12.0 mg/kg/injection, schedule: Q01DX009 (ip), vehicle: saline); 100 % of control (dose: 12.0 mg/kg/injection, schedule: Q04DX003 (ip), vehicle: other); 94 % of control under setting [12]; 95 % of control (dose: 25.0 mg/kg/injection, schedule: Q04DX003 (ip), vehicle: other).
On to `CN(C)CCS(=O)(=O)c1ccc(Cl)cc1`, for which the T/C under setting [6] was 102 % of control, the T/C under setting [7] is 109 % of control and the T/C under setting [8] is 98 % of control.
`Cc1ccccc1N=Nc1c(O)n(-c2ccc(Cl)cc2)c(=S)n(-c2ccccc2)c1=O`: the T/C (dose: 75.0 mg/kg/injection, schedule: Q04DX003 (ip), vehicle: Klucel (hydroxypropylcellulose) (HPC)) was 100 % of control; the T/C (dose: 150.0 mg/kg/injection, schedule: Q04DX003 (ip), vehicle: Klucel (hydroxypropylcellulose) (HPC)) is 96 % of control; the T/C (dose: 300.0 mg/kg/injection, schedule: Q04DX003 (ip), vehicle: Klucel (hydroxypropylcellulose) (HPC)) is 107 % of control.
As for `CCCCCCCCCCCCCCCCCCSc1ccc2ccccc2c1`, the T/C reads like this: under setting [9], 105 % of control; under setting [10], 94 % of control; under setting [11], 91 % of control.
As to `Cc1cc(C(C)(C)C)ccc1S(=O)(=O)C1CC1c1ccccc1` (stereo unspecified), the T/C reads like this: under setting [16], 98 % of control; under setting [18], 102 % of control; under setting [20], 98 % of control.
In the case of `OC(c1ccccc1)c1cccc(Br)c1` (stereo unspecified), the T/C is, setting by setting: under setting [17], 104 % of control; under setting [13], 96 % of control; under setting [19], 107 % of control; under setting [14], 105 % of control; (dose: 400.0 mg/kg/injection, schedule: Q01DX009 (ip), vehicle: acetone) 100 % of control; under setting [15], 89 % of control.
